From ChEMBL document CHEMBL1201862, “PubChem BioAssay data set” (2004)
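How tested: cells in 96-well plates exposed to compound for 48 hours at five concentrations. GI50 = concentration required for 50% inhibition of growth.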 Calls of active or inactive are those of the source. Rule as the data show it: active = GI50 up to about 1.1 µM and inactive = higher.

Columns and labels:
Test in all cases: NCI anticancer screen, dose series, 48 h
UO-31 = system: UO-31
EKVX = system: EKVX
SK-MEL-2 = system: SK-MEL-2
UACC-62 = system: UACC-62
LOX IMVI = system: LOX IMVI
KM-20L2 = system: KM-20L2
M14 = system: M14
A549 = system: A549
RXF 393 = system: RXF 393
ACHN = system: ACHN
HOP-62 = system: HOP-62
SF-539 = system: SF-539
HCT-116 = system: HCT-116
SNB-75 = system: SNB-75
A498 = system: A498
UACC-257 = system: UACC-257
COLO 205 = system: COLO 205
MDA-MB-231 = system: MDA-MB-231
DU-145 = system: DU-145

SMILES | GI50 (UO-31) | GI50 (EKVX) | GI50 (SK-MEL-2) | GI50 (UACC-62) | GI50 (LOX IMVI) | GI50 (KM-20L2) | GI50 (M14) | GI50 (A549) | GI50 (RXF 393) | GI50 (ACHN) | GI50 (HOP-62) | GI50 (SF-539) | GI50 (HCT-116) | GI50 (SNB-75) | GI50 (A498) | GI50 (UACC-257) | GI50 (COLO 205) | GI50 (MDA-MB-231) | GI50 (DU-145)
CC1(C)C(=O)OC(n2cc(F)c(=O)[nH]c2=O)C1=O (stereo not given) | > 100 µM (inactive) | 39.1 µM (inactive) | > 100 µM (inactive) | > 100 µM (inactive) | > 100 µM (inactive) | > 100 µM (inactive) | > 100 µM (inactive) | 66.5 µM (inactive) | > 100 µM (inactive) | > 100 µM (inactive) | 65.9 µM (inactive) | 43.9 µM (inactive) | 89.5 µM (inactive) | > 100 µM (inactive) | > 100 µM (inactive) | > 100 µM (inactive) | > 100 µM (inactive) | – | –
Cc1ccc(C2=Nc3ccccc3NC(=O)C2)cc1 | > 100 µM (inactive) | > 100 µM (inactive) | > 100 µM (inactive) | > 100 µM (inactive) | 95.1 µM (inactive) | > 100 µM (inactive) | > 100 µM (inactive) | > 100 µM (inactive) | > 100 µM (inactive) | > 100 µM (inactive) | > 100 µM (inactive) | > 100 µM (inactive) | > 100 µM (inactive) | 43.8 µM (inactive) | > 100 µM (inactive) | > 100 µM (inactive) | > 100 µM (inactive) | – | –
COc1ccc(-c2cc(O)c3cc4c(cc3n2)OCO4)cc1 | > 100 µM (inactive) | 19.9 µM (inactive) | > 100 µM (inactive) | > 100 µM (inactive) | > 100 µM (inactive) | > 100 µM (inactive) | > 100 µM (inactive) | > 100 µM (inactive) | 38.4 µM (inactive) | > 100 µM (inactive) | 61 µM (inactive) | > 100 µM (inactive) | > 100 µM (inactive) | 29.8 µM (inactive) | > 100 µM (inactive) | > 100 µM (inactive) | > 100 µM (inactive) | – | –
CC1OC(n2cc(F)c(=O)[nH]c2=O)C=CC1=O (stereo not given) | 16.1 µM (inactive) | – | 15.1 µM (inactive) | 17.7 µM (inactive) | 15 µM (inactive) | 18.4 µM (inactive) | 17.5 µM (inactive) | > 100 µM (inactive) | 15.5 µM (inactive) | 18 µM (inactive) | 38.8 µM (inactive) | 16.4 µM (inactive) | 16.3 µM (inactive) | 17.9 µM (inactive) | 16.7 µM (inactive) | 17.9 µM (inactive) | 32.2 µM (inactive) | – | –
CC1CC2OC(=O)CC2C[C@@H]1O[Si](C)(C)C(C)(C)C (stereo not given in full) | 57.7 µM (inactive) | > 100 µM (inactive) | 83.4 µM (inactive) | 68.7 µM (inactive) | 55.7 µM (inactive) | 46.3 µM (inactive) | 94.6 µM (inactive) | 88.3 µM (inactive) | – | 43.9 µM (inactive) | 48.9 µM (inactive) | > 100 µM (inactive) | 38.5 µM (inactive) | 51.4 µM (inactive) | > 10 µM (inactive) | 61.8 µM (inactive) | 74.6 µM (inactive) | – | –
CO/N=C/c1cc(OC)c(OC)c(OC)c1 | > 100 µM (inactive) | > 100 µM (inactive) | > 100 µM (inactive) | > 100 µM (inactive) | > 100 µM (inactive) | > 100 µM (inactive) | > 100 µM (inactive) | > 100 µM (inactive) | – | > 100 µM (inactive) | > 100 µM (inactive) | > 100 µM (inactive) | > 100 µM (inactive) | > 100 µM (inactive) | > 100 µM (inactive) | > 100 µM (inactive) | > 100 µM (inactive) | – | –
CC1CC(c2ccc([N+](=O)[O-])cc2)=Nc2ccccc2[S+]1[O-] (stereo not given) | 13 µM (inactive) | 23.4 µM (inactive) | 44.5 µM (inactive) | 17.7 µM (inactive) | 12.1 µM (inactive) | 16.1 µM (inactive) | 18.1 µM (inactive) | 20 µM (inactive) | 11.1 µM (inactive) | 21.3 µM (inactive) | 26.1 µM (inactive) | 21.8 µM (inactive) | 2.11 µM (inactive) | 21.4 µM (inactive) | 18.2 µM (inactive) | 20.2 µM (inactive) | 18 µM (inactive) | – | –
N#CC1(Cc2ccccc2)CCCCN1C(=O)c1ccccc1 (stereo not given) | 92.9 µM (inactive) | > 100 µM (inactive) | 1.42 µM (inactive) | > 100 µM (inactive) | 84.7 µM (inactive) | > 100 µM (inactive) | > 100 µM (inactive) | > 100 µM (inactive) | > 100 µM (inactive) | > 100 µM (inactive) | > 100 µM (inactive) | > 100 µM (inactive) | > 100 µM (inactive) | > 100 µM (inactive) | > 100 µM (inactive) | > 100 µM (inactive) | > 100 µM (inactive) | – | –
CC[C@@]1(O)C(=O)OCc2c1cc1n(c2=O)Cc2cc3cc(OC)ccc3nc2-1 | 0.0333 µM (active) | 0.546 µM (active) | 0.16 µM (active) | 0.00244 µM (active) | 0.0221 µM (active) | 0.0604 µM (active) | 0.00718 µM (active) | 0.0249 µM (active) | 0.016 µM (active) | 0.00476 µM (active) | 0.00562 µM (active) | 0.0033 µM (active) | 0.0197 µM (active) | 0.00427 µM (active) | 0.415 µM (active) | 0.15 µM (active) | 0.116 µM (active) | 0.0843 µM (active) | 0.00439 µM (active)
CC(N)Cc1ccc(F)cc1 (stereo not given) | > 100 µM (inactive) | > 100 µM (inactive) | > 100 µM (inactive) | > 100 µM (inactive) | > 100 µM (inactive) | > 100 µM (inactive) | > 100 µM (inactive) | > 100 µM (inactive) | > 100 µM (inactive) | > 100 µM (inactive) | > 100 µM (inactive) | > 100 µM (inactive) | > 100 µM (inactive) | > 100 µM (inactive) | > 100 µM (inactive) | > 100 µM (inactive) | > 100 µM (inactive) | – | –
C#CCCCCC#Cc1ccccc1C(=O)OC | 40.5 µM (inactive) | 85.1 µM (inactive) | 39.7 µM (inactive) | 32.7 µM (inactive) | 14.8 µM (inactive) | 58.2 µM (inactive) | > 100 µM (inactive) | > 100 µM (inactive) | 21.4 µM (inactive) | 64.3 µM (inactive) | > 100 µM (inactive) | > 100 µM (inactive) | 11 µM (inactive) | 20.6 µM (inactive) | > 100 µM (inactive) | 71.8 µM (inactive) | > 100 µM (inactive) | – | –
Nc1nc(N)c(CCCCc2ccccc2)c(C=O)n1 | 19.1 µM (inactive) | 21 µM (inactive) | 20 µM (inactive) | 15.2 µM (inactive) | 14.8 µM (inactive) | 30.6 µM (inactive) | 16.4 µM (inactive) | 41.4 µM (inactive) | – | 22.5 µM (inactive) | > 100 µM (inactive) | 18.9 µM (inactive) | 13.1 µM (inactive) | 12.7 µM (inactive) | > 100 µM (inactive) | 13.6 µM (inactive) | 31.8 µM (inactive) | – | –
CSC1NC=Nc2c1sc(=S)n2-c1ccccc1 (stereo not given) | > 100 µM (inactive) | > 100 µM (inactive) | > 100 µM (inactive) | > 100 µM (inactive) | > 100 µM (inactive) | > 100 µM (inactive) | > 100 µM (inactive) | > 100 µM (inactive) | > 100 µM (inactive) | > 100 µM (inactive) | 24.2 µM (inactive) | > 100 µM (inactive) | > 100 µM (inactive) | 28.4 µM (inactive) | > 100 µM (inactive) | > 100 µM (inactive) | > 100 µM (inactive) | – | –
O=C1N=C2N=C(c3ccc(Cl)cc3)N(c3ccc(Cl)cc3)N2Sc2ccccc21 | 32.4 µM (inactive) | > 100 µM (inactive) | > 100 µM (inactive) | > 100 µM (inactive) | > 100 µM (inactive) | > 100 µM (inactive) | > 100 µM (inactive) | 39.8 µM (inactive) | 32.8 µM (inactive) | > 100 µM (inactive) | 36.1 µM (inactive) | > 100 µM (inactive) | > 100 µM (inactive) | > 100 µM (inactive) | > 100 µM (inactive) | > 100 µM (inactive) | > 100 µM (inactive) | – | –
NC1=NC(c2ccccc2)CC(c2cc(Cl)ccc2O)=N1 (stereo not given) | 15.2 µM (inactive) | 15.3 µM (inactive) | – | 15.8 µM (inactive) | 15.5 µM (inactive) | 17.4 µM (inactive) | 16.9 µM (inactive) | 14.3 µM (inactive) | 17.3 µM (inactive) | 15.3 µM (inactive) | 16.2 µM (inactive) | 15 µM (inactive) | 14 µM (inactive) | 17.7 µM (inactive) | 20.1 µM (inactive) | 19.9 µM (inactive) | 19.5 µM (inactive) | – | –
NC(=O)COc1ccccc1 | > 100 µM (inactive) | > 100 µM (inactive) | > 100 µM (inactive) | > 100 µM (inactive) | > 100 µM (inactive) | > 100 µM (inactive) | > 100 µM (inactive) | > 100 µM (inactive) | > 100 µM (inactive) | > 100 µM (inactive) | > 100 µM (inactive) | > 100 µM (inactive) | > 100 µM (inactive) | > 100 µM (inactive) | > 100 µM (inactive) | > 100 µM (inactive) | > 100 µM (inactive) | – | –
CC(=O)Oc1ccc(CO)cc1OC(C)=O | > 100 µM (inactive) | 32.2 µM (inactive) | > 100 µM (inactive) | > 100 µM (inactive) | > 100 µM (inactive) | > 100 µM (inactive) | > 100 µM (inactive) | > 100 µM (inactive) | > 100 µM (inactive) | > 100 µM (inactive) | > 100 µM (inactive) | – | > 100 µM (inactive) | > 100 µM (inactive) | > 100 µM (inactive) | > 100 µM (inactive) | > 100 µM (inactive) | – | –
